“And” between values parts separate entries of the source, which are not always exact repeats. Identical values can stand only once.
Test system: BCL-2 WT
Assay: Steady-state competition SPR against immobilised BIMBH3 peptide, BCL-2 WT
Type: binding, human
Experimental: SPR experiments were performed as previously described. […] The lowest concentrations used in direct binding experiments were 1 nM for BIAcore 4000 and 0.1 nM for BIAcore S200 instruments, concentrations below these were below the sensitivity thresholds for the instruments. […] Direct binding experiments were fitted to a 1:1 binding site kinetic model, fitting on and off rates, in BIAevaluation software. For competition experiments steady-state responses were determined in BIAevaluation software according to the software defaults in affinity evaluation mode averaging responses for 5 sec. […] All affinity measurements were performed in at least two independent experiments using independent protein preparations.

`O=C(c1cc(-c2cc3c(cc2C(=O)N2Cc4ccccc4C[C@H]2CN2CCOCC2)OCO3)n2c1CCCC2)N(c1ccccc1)c1ccc(O)cc1` [S55746] was tested, and the “S55746 binding weaker than venetoclax” value (BCL-2 WT) was > 10 fold and 10 fold, the “Raw data values in Figure 3f (SPR response)” value (shortened to “Raw data values in Figure 3f”) (S55746 concentration 20, BCL-2 concentration 1 nM, independent experiment 2) was 2.733 and the “Raw data values in Figure 3f” value (S55746 concentration 20, BCL-2 concentration 3 nM, independent experiment 2) was 5.054. For the same compound, the “Raw data values in Figure 3f” value (S55746 concentration 20, BCL-2 concentration 4 nM, independent experiment 2) was 7.385, the “Raw data values in Figure 3f” value (S55746 concentration 20, BCL-2 concentration 6 nM, independent experiment 2) was 10.4479 and the “Raw data values in Figure 3f” value (S55746 concentration 20, BCL-2 concentration 8 nM, independent experiment 2) was 13.83. For the same compound, the “Raw data values in Figure 3f” value (S55746 concentration 20, BCL-2 concentration 9 nM, independent experiment 2) was 18.2167, the “Raw data values in Figure 3f” value (S55746 concentration 20, BCL-2 concentration 10 nM, independent experiment 1) was 14.9942 and the “Raw data values in Figure 3f” value (S55746 concentration 20, BCL-2 concentration 10 nM, independent experiment 3) was 5.545. The “Raw data values in Figure 3f” value (S55746 concentration 20, BCL-2 concentration 11 nM, independent experiment 2) was 22.9055, the “Raw data values in Figure 3f” value (S55746 concentration 20, BCL-2 concentration 12 nM, independent experiment 2) was 29.6258 and the “Raw data values in Figure 3f” value (S55746 concentration 20, BCL-2 concentration 16 nM, independent experiment 2) was 52.2757. The “Raw data values in Figure 3f” value (S55746 concentration 20, BCL-2 concentration 20 nM, independent experiment 1) was 62.0337, the “Raw data values in Figure 3f” value (S55746 concentration 20, BCL-2 concentration 20 nM, independent experiment 3) was 30.5673 and the “Raw data values in Figure 3f” value (S55746 concentration 20, BCL-2 concentration 24 nM, independent experiment 2) was 194.711. For the same compound, the “Raw data values in Figure 3f” value (S55746 concentration 20, BCL-2 concentration 30 nM, independent experiment 1) was 78.5463, the “Raw data values in Figure 3f” value (S55746 concentration 20, BCL-2 concentration 30 nM, independent experiment 3) was 46.9544 and the “Raw data values in Figure 3f” value (S55746 concentration 20, BCL-2 concentration 40 nM, independent experiment 1) was 84.3215. The “Raw data values in Figure 3f” value (S55746 concentration 20, BCL-2 concentration 40 nM, independent experiment 2) was 278.992, the “Raw data values in Figure 3f” value (S55746 concentration 20, BCL-2 concentration 40 nM, independent experiment 3) was 55.2753 and the “Raw data values in Figure 3f” value (S55746 concentration 20, BCL-2 concentration 50 nM, independent experiment 1) was 87.889. The “Raw data values in Figure 3f” value (S55746 concentration 20, BCL-2 concentration 50 nM, independent experiment 3) was 61.4638, the “Raw data values in Figure 3f” value (S55746 concentration 20, BCL-2 concentration 60 nM, independent experiment 1) was 89.8444 and the “Raw data values in Figure 3f” value (S55746 concentration 20, BCL-2 concentration 60 nM, independent experiment 3) was 66.5259. The “Raw data values in Figure 3f” value (S55746 concentration 20, BCL-2 concentration 70 nM, independent experiment 1) was 91.3513, the “Raw data values in Figure 3f” value (S55746 concentration 20, BCL-2 concentration 70 nM, independent experiment 3) was 70.0896 and the “Raw data values in Figure 3f” value (S55746 concentration 20, BCL-2 concentration 80 nM, independent experiment 1) was 91.9809. The “Raw data values in Figure 3f” value (S55746 concentration 20, BCL-2 concentration 80 nM, independent experiment 3) was 71.977, the “Raw data values in Figure 3f” value (S55746 concentration 20, BCL-2 concentration 100 nM, independent experiment 1) was 93.8895 and the “Raw data values in Figure 3f” value (S55746 concentration 20, BCL-2 concentration 100 nM, independent experiment 3) was 77.7314. For the same compound, the “Raw data values in Figure 3f” value (S55746 concentration 20, BCL-2 concentration 150 nM, independent experiment 1) was 96.8618, the “Raw data values in Figure 3f” value (S55746 concentration 20, BCL-2 concentration 150 nM, independent experiment 3) was 85.769 and the “Raw data values in Figure 3f” value (S55746 concentration 20, BCL-2 concentration 200 nM, independent experiment 1) was 97.7551. For the same compound, the “Raw data values in Figure 3f” value (S55746 concentration 20, BCL-2 concentration 200 nM, independent experiment 3) was 90.6286, the “Raw data values in Figure 3f” value (S55746 concentration 40, BCL-2 concentration 1 nM, independent experiment 2) was 1.748 and the “Raw data values in Figure 3f” value (S55746 concentration 40, BCL-2 concentration 3 nM, independent experiment 2) was 3.274. The “Raw data values in Figure 3f” value (S55746 concentration 40, BCL-2 concentration 4 nM, independent experiment 2) was 4.7441, the “Raw data values in Figure 3f” value (S55746 concentration 40, BCL-2 concentration 6 nM, independent experiment 2) was 5.884 and the “Raw data values in Figure 3f” value (S55746 concentration 40, BCL-2 concentration 8 nM, independent experiment 2) was 7.971. The “Raw data values in Figure 3f” value (S55746 concentration 40, BCL-2 concentration 9 nM, independent experiment 2) was 9.582, the “Raw data values in Figure 3f” value (S55746 concentration 40, BCL-2 concentration 10 nM, independent experiment 1) was 5.808 and the “Raw data values in Figure 3f” value (S55746 concentration 40, BCL-2 concentration 10 nM, independent experiment 3) was 2.581. The “Raw data values in Figure 3f” value (S55746 concentration 40, BCL-2 concentration 11 nM, independent experiment 2) was 11.5501, the “Raw data values in Figure 3f” value (S55746 concentration 40, BCL-2 concentration 12 nM, independent experiment 2) was 13.3285 and the “Raw data values in Figure 3f” value (S55746 concentration 40, BCL-2 concentration 16 nM, independent experiment 2) was 18.1319. The “Raw data values in Figure 3f” value (S55746 concentration 40, BCL-2 concentration 20 nM, independent experiment 1) was 14.077, the “Raw data values in Figure 3f” value (S55746 concentration 40, BCL-2 concentration 20 nM, independent experiment 3) was 5.653 and the “Raw data values in Figure 3f” value (S55746 concentration 40, BCL-2 concentration 24 nM, independent experiment 2) was 35.953. For the same compound, the “Raw data values in Figure 3f” value (S55746 concentration 40, BCL-2 concentration 30 nM, independent experiment 1) was 36.4319, the “Raw data values in Figure 3f” value (S55746 concentration 40, BCL-2 concentration 30 nM, independent experiment 3) was 15.4804 and the “Raw data values in Figure 3f” value (S55746 concentration 40, BCL-2 concentration 40 nM, independent experiment 1) was 75.4873. For the same compound, the “Raw data values in Figure 3f” value (S55746 concentration 40, BCL-2 concentration 40 nM, independent experiment 2) was 135.922, the “Raw data values in Figure 3f” value (S55746 concentration 40, BCL-2 concentration 40 nM, independent experiment 3) was 43.3243 and the “Raw data values in Figure 3f” value (S55746 concentration 40, BCL-2 concentration 50 nM, independent experiment 1) was 78.7968. The “Raw data values in Figure 3f” value (S55746 concentration 40, BCL-2 concentration 50 nM, independent experiment 3) was 49.1674, the “Raw data values in Figure 3f” value (S55746 concentration 40, BCL-2 concentration 60 nM, independent experiment 1) was 84.5822 and the “Raw data values in Figure 3f” value (S55746 concentration 40, BCL-2 concentration 60 nM, independent experiment 3) was 58.6901. For the same compound, the “Raw data values in Figure 3f” value (S55746 concentration 40, BCL-2 concentration 70 nM, independent experiment 1) was 88.5391, the “Raw data values in Figure 3f” value (S55746 concentration 40, BCL-2 concentration 70 nM, independent experiment 3) was 64.9952 and the “Raw data values in Figure 3f” value (S55746 concentration 40, BCL-2 concentration 80 nM, independent experiment 1) was 89.9035. The “Raw data values in Figure 3f” value (S55746 concentration 40, BCL-2 concentration 80 nM, independent experiment 3) was 69.0967, the “Raw data values in Figure 3f” value (S55746 concentration 40, BCL-2 concentration 100 nM, independent experiment 1) was 92.2307 and the “Raw data values in Figure 3f” value (S55746 concentration 40, BCL-2 concentration 100 nM, independent experiment 3) was 75.0006. The “Raw data values in Figure 3f” value (S55746 concentration 40, BCL-2 concentration 150 nM, independent experiment 1) was 94.9838, the “Raw data values in Figure 3f” value (S55746 concentration 40, BCL-2 concentration 150 nM, independent experiment 3) was 84.1638 and the “Raw data values in Figure 3f” value (S55746 concentration 40, BCL-2 concentration 200 nM, independent experiment 1) was 96.8989. For the same compound, the “Raw data values in Figure 3f” value (S55746 concentration 40, BCL-2 concentration 200 nM, independent experiment 3) was 89.8321, the “Raw data values in Figure 3f” value (S55746 concentration 60, BCL-2 concentration 10 nM, independent experiment 1) was 3.3753 and the “Raw data values in Figure 3f” value (S55746 concentration 60, BCL-2 concentration 10 nM, independent experiment 3) was 1.1233. The “Raw data values in Figure 3f” value (S55746 concentration 60, BCL-2 concentration 20 nM, independent experiment 1) was 7.929, the “Raw data values in Figure 3f” value (S55746 concentration 60, BCL-2 concentration 20 nM, independent experiment 3) was 2.648 and the “Raw data values in Figure 3f” value (S55746 concentration 60, BCL-2 concentration 30 nM, independent experiment 1) was 13.853. For the same compound, the “Raw data values in Figure 3f” value (S55746 concentration 60, BCL-2 concentration 30 nM, independent experiment 3) was 4.966, the “Raw data values in Figure 3f” value (S55746 concentration 60, BCL-2 concentration 40 nM, independent experiment 1) was 26.5524 and the “Raw data values in Figure 3f” value (S55746 concentration 60, BCL-2 concentration 40 nM, independent experiment 3) was 9.938. For the same compound, the “Raw data values in Figure 3f” value (S55746 concentration 60, BCL-2 concentration 50 nM, independent experiment 1) was 51.4643, the “Raw data values in Figure 3f” value (S55746 concentration 60, BCL-2 concentration 50 nM, independent experiment 3) was 23.6574 and the “Raw data values in Figure 3f” value (S55746 concentration 60, BCL-2 concentration 60 nM, independent experiment 1) was 75.6075. The “Raw data values in Figure 3f” value (S55746 concentration 60, BCL-2 concentration 60 nM, independent experiment 3) was 44.7291, the “Raw data values in Figure 3f” value (S55746 concentration 60, BCL-2 concentration 70 nM, independent experiment 1) was 83.0032 and the “Raw data values in Figure 3f” value (S55746 concentration 60, BCL-2 concentration 70 nM, independent experiment 3) was 55.5781. For the same compound, the “Raw data values in Figure 3f” value (S55746 concentration 60, BCL-2 concentration 80 nM, independent experiment 1) was 87.1926, the “Raw data values in Figure 3f” value (S55746 concentration 60, BCL-2 concentration 80 nM, independent experiment 3) was 62.5167 and the “Raw data values in Figure 3f” value (S55746 concentration 60, BCL-2 concentration 100 nM, independent experiment 1) was 90.81.

Reference: article PMC6547681 (Nature Communications, 2019)
